Measured values taken from ChEMBL document CHEMBL1201862, “PubChem BioAssay data set” (2004).
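Values below derive from 48-hour exposures of cells grown in 96-well plates, with endpoints linearly interpolated between the two concentrations bracketing the appropriate inhibition level. GI50 is the concentration that inhibits growth by half.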 The source made the active and inactive calls. No stated cut-off is given here; in the data, active = GI50 up to about 1.1 µM and inactive = higher.

Experiments:
Assay in all cases: growth of human tumour cells (NCI), 48 h
786-0 = tested on: 786-0
A549 = tested on: A549
ACHN = tested on: ACHN
BT-549 = tested on: BT-549
CAKI-1 = tested on: CAKI-1
COLO 205 = tested on: COLO 205
DU-145 = tested on: DU-145
EKVX = tested on: EKVX
HCC 2998 = tested on: HCC 2998
HCT-116 = tested on: HCT-116
HCT-15 = tested on: HCT-15
HOP-62 = tested on: HOP-62
HT-29 = tested on: HT-29
Hs-578T = tested on: Hs-578T
IGROV-1 = tested on: IGROV-1
K562 = tested on: K562
KM12 = tested on: KM12
LOX IMVI = tested on: LOX IMVI
M14 = tested on: M14
MCF7 = tested on: MCF7
MDA-MB-231 = tested on: MDA-MB-231
MDA-MB-435 = tested on: MDA-MB-435
MDA-N = tested on: MDA-N
MOLT-4 = tested on: MOLT-4
Malme-3M = tested on: Malme-3M
NCI-H226 = tested on: NCI-H226
NCI-H23 = tested on: NCI-H23
NCI-H460 = tested on: NCI-H460
NCI/ADR-RES = tested on: NCI/ADR-RES
OVCAR-3 = tested on: OVCAR-3
OVCAR-4 = tested on: OVCAR-4
OVCAR-5 = tested on: OVCAR-5
OVCAR-8 = tested on: OVCAR-8
PC-3 = tested on: PC-3
RPMI-8226 = tested on: RPMI-8226
SF-268 = tested on: SF-268
SF-295 = tested on: SF-295
SF-539 = tested on: SF-539
SK-MEL-28 = tested on: SK-MEL-28
SK-MEL-2 = tested on: SK-MEL-2
SK-MEL-5 = tested on: SK-MEL-5
SK-OV-3 = tested on: SK-OV-3
SN12C = tested on: SN12C
SNB-19 = tested on: SNB-19
SNB-75 = tested on: SNB-75
SR = tested on: SR
SW-620 = tested on: SW-620
T47D = tested on: T47D
TK-10 = tested on: TK-10
U-251 = tested on: U-251
UACC-257 = tested on: UACC-257
UACC-62 = tested on: UACC-62
UO-31 = tested on: UO-31
A498 = tested on: A498
CCRF-CEM = tested on: CCRF-CEM
HL-60 = tested on: HL-60
HOP-92 = tested on: HOP-92
NCI-H522 = tested on: NCI-H522
RXF 393 = tested on: RXF 393

Measured: GI50

C[n+]1c2ccccc2c(C(=O)Nc2ccc(S(=O)(=O)Nc3ccnn3-c3ccccc3)cc2)c2ccccc21
> 100 µM: HCT-15
inactive: 786-0 > 100 µM | A549 > 100 µM | ACHN > 100 µM | BT-549 > 100 µM | CAKI-1 > 100 µM | COLO 205 > 100 µM | DU-145 > 100 µM | EKVX > 100 µM | HCC 2998 > 100 µM | HCT-116 > 100 µM | HOP-62 > 100 µM | HT-29 > 100 µM | Hs-578T > 100 µM | IGROV-1 > 100 µM | K562 > 100 µM | KM12 > 100 µM | LOX IMVI > 100 µM | M14 > 100 µM | MCF7 > 100 µM | MDA-MB-231 > 100 µM | MDA-MB-435 > 100 µM | MDA-N > 100 µM | MOLT-4 > 100 µM | Malme-3M > 100 µM | NCI-H226 > 100 µM | NCI-H23 > 100 µM | NCI-H460 > 100 µM | NCI/ADR-RES 20.7 µM | OVCAR-3 > 100 µM | OVCAR-4 > 100 µM | OVCAR-5 > 100 µM | OVCAR-8 > 100 µM | PC-3 > 100 µM | RPMI-8226 > 100 µM | SF-268 > 100 µM | SF-295 > 100 µM | SF-539 > 100 µM | SK-MEL-28 > 100 µM | SK-MEL-2 > 100 µM | SK-MEL-5 69.2 µM | SK-OV-3 > 100 µM | SN12C > 100 µM | SNB-19 > 100 µM | SNB-75 > 100 µM | SR > 100 µM | SW-620 > 100 µM | T47D > 100 µM | TK-10 > 100 µM | U-251 > 100 µM | UACC-257 > 100 µM | UACC-62 > 100 µM | UO-31 > 100 µM

COC(=O)C1=C(OC(=O)/C(=C/c2ccccc2)c2ccc([N+](=O)[O-])cc2)C(C(=O)OC)[C@@]2(O)[C@@H](C(=O)OC)[C@H](C)C[C@@H]1[C@@H]2C(=O)OC (stereo partly specified)
> 100 µM: HCT-15
inactive: 786-0 > 100 µM | A498 > 100 µM | A549 76.2 µM | ACHN > 100 µM | BT-549 31.1 µM | CAKI-1 > 100 µM | CCRF-CEM 12.9 µM | COLO 205 > 100 µM | DU-145 > 100 µM | EKVX > 100 µM | HCC 2998 > 100 µM | HCT-116 > 100 µM | HL-60 78 µM | HOP-62 > 100 µM | HOP-92 > 100 µM | HT-29 > 100 µM | Hs-578T > 100 µM | IGROV-1 > 100 µM | K562 > 100 µM | KM12 > 100 µM | LOX IMVI > 100 µM | M14 > 100 µM | MCF7 > 100 µM | MDA-MB-231 > 100 µM | MDA-MB-435 > 100 µM | MDA-N > 100 µM | MOLT-4 3.53 µM | Malme-3M > 100 µM | NCI-H226 > 100 µM | NCI-H23 > 100 µM | NCI-H460 > 100 µM | NCI-H522 77.3 µM | NCI/ADR-RES > 100 µM | OVCAR-3 > 100 µM | OVCAR-4 > 100 µM | OVCAR-5 > 100 µM | OVCAR-8 > 100 µM | PC-3 > 100 µM | RPMI-8226 3.71 µM | RXF 393 53 µM | SF-268 > 100 µM | SF-295 > 100 µM | SF-539 51.5 µM | SK-MEL-28 > 100 µM | SK-MEL-2 > 100 µM | SK-MEL-5 > 100 µM | SK-OV-3 > 100 µM | SN12C > 100 µM | SNB-19 > 100 µM | SNB-75 72.9 µM | SW-620 > 100 µM | T47D > 100 µM | TK-10 > 100 µM | U-251 > 100 µM | UACC-257 > 100 µM | UACC-62 > 100 µM | UO-31 > 100 µM
